In patent US20250302913A1, “LACRIPEP PROMOTES NEUROREGENERATION AND MAINTAINS EPITHELIAL PROGENITOR CELL IDENTITY” (The Regents of The University of California, priority 2022, published 2025):

Columns and labels:
[1] = tested on: corneal nerves of Aire KO corneas; experiment: Corneal nerve density (GAP43, TUBB3, SP, CGRP immunolabeling); type: in vivo, mouse
Excerpt: To test for changes in innervation, corneas isolated from the four treatment groups at day 15 were immunostained for growth-associated protein 43 (GAP43), a marker of remodeling axons (25), along with two common sensory neuropeptides, substance P (SP) and calcitonin-gene related protein (CGRP). SP and CGRP are differentially expressed to carry out discrete functions: SP is released in response to trigeminal activation to modulate tear secretion and goblet cell function (26) while CGRP is involved in multiple homeostatic processes, including corneal epithelium regeneration and regulation of vasculature (27, 28). […] Thus, lacripep treatment successfully regenerates the sensory nerve supply to the inflamed cornea during disease progression.
Given nerve-epithelial interactions are essential for mediating physiological tear secretion, we next assessed innervation to corneal epithelial cell layers at 2 wks of treatment (day 15, 7 wks of age) through immunofluorescent analysis.
Next, we questioned the timing of epithelial reinnervation in response to lacripep treatment by analyzing the nerve supply at the 7 day time point (6 wks of age) through 3D imaging of intact whole mount corneas (FIG. 3A). […] Of note, the pro-regenerative cellular changes after axon injury result in neurons switching from an active, electrically transmitting state back to an electrically silent, growth-competent state (29-31), thereby likely impairing increased basal tear production at the 7 day time point for lacripep treated mice compared to untreated Aire KO controls (FIG. 1B).
For corneal whole mount staining, PFA fixed corneas were blocked and incubated in primary antibodies for 48 hr at 4° C.: Mouse anti-TUBB3 (1:300, R&D, MAB 1195), rabbit anti-GAP43 (1:400, Novus bio, NB 300-143), goat anti-CGRP (1:300, Thermo fisher, PA1-85250), and rat anti-Substance P (1:500, Millipore, MAB 356). This was followed by extensive washes in PBST before tissue was incubated in secondary antibodies overnight at 4° C.
Quantification of corneal epithelial nerve density and synapses. Tissue sections: TUBB3+ nerve density within 300 μm sections of central cornea epithelial ROI was quantified by applying Tsai's thresholding method (Moments), with integrated densities within the ROI of the thresholded image being recorded. Corneal whole mounts: The density of nerves expressing GAP43, TUBB3, or GAP43 and TUBB3 (% Area of 354 μm×396 μm) was quantified from central cornea images of whole mount cornea and plotted in a stacked bar graph to visualize the proportion of each of the three nerve types. Similarly, numbers of synapses marked by expression of GAP43, TUBB3, or GAP43 and TUBB3 were counted per respective region of central cornea (100 μm2) and plotted in a stacked bar graph. The density of GAP43+ nerves were quantified from the whole mount cornea images (354 μm×396 μm) applying Tsai's threshold as described above.
3D reconstruction of nerve fibers. Acquired confocal Z-stacks comprising epithelial and stroma were reconstructed into 3D images using Imaris image analysis software (Bitplane AG, Zurich, Switzerland). The surface of the nuclei (Hoechst) and nerves (TUBB3/GAP43/SP/CGRP) were segmented using the background subtraction threshold. Each channel was obtained separately. Touching nuclei were split by the calculated seed points inside each area.

Aire KO corneas = experiment: RNAseq of corneas at day 7 of treatment; type: in vivo, mouse
Excerpt: To identify potential downstream targets of lacripep treatment, we elucidated changes in corneal gene expression and signaling pathways at the day 7 time point through RNAseq. Principal component analysis (PCA) identified major transcriptional differences between each treatment group (FIG. 6A). […] Subsequent analysis yielded enriched gene sets that were highly associated with neuronal gene ontology (GO) terms e.g., synapse (P=3.6E-47), visual perception (P=5.8E-49), neuron projection (P=2.1E-29), and response to stimulus (P=1.8E-19) (FIG. 4C). These included cohorts of genes expressed by nerves and/or corneal epithelial cells involved in axonogenesis and axon guidance e.g., Neurod2, Cntn4, ephrins (Epha5, Epha7, Epha8) and semaphorins (Sema6a, Sema7a); synapse formation and function e.g., synaptic vesicle membrane proteins (Syt1; synaptophysin-Syp) and synaptic vesicle exocytosis regulators (Rims1, Rims2); neuronal signaling e.g., GABA receptors (Gabra2, Gabrr1), glutamate receptors (Gria2, Gria4), and G protein signal-transducing mediators (Gnb3, Gng4); and neurotransmitter transport e.g. glutamate transporters (Slc17a7) and GABA transporters (Slc6a1, Slc32a1) (FIG. 4D). Analysis of corneas treated with lacripep or PBS versus untreated corneas further emphasized the ability of lacripep and not PBS alone to induce transcription of neuronal gene sets (FIG. 6B).
Total RNA was collected at 7 days of treatment and purified using RNAaqueous and DNase reagents according to the manufacturer's instructions (Ambion, Houston, TX, USA). RNA quality was assessed using the Agilent 2100 BioAnalyzer, and samples with an RNA integrity ≥6.0 were included for RNA sequencing. The synthesis of mRNA libraries was performed by Novogene Corporation Inc. according to their protocols. RNA library was formed by ploy A capture (or rRNA removal), RNA fragmentation by covaris or enzyme digestion and reverse transcription of cDNA. Sequencing was performed as described below.
RNA libraries were sequenced on an Illumina NovaSeq 6000. Depths of 20-30 million 150 bp paired-end reads were generated for each sample. Quality control metrics were performed on raw sequencing reads using the FASTQC v0.11.9 application (76). Reads were mapped to the UCSC Mus musculus genome mm 10 (NCBI build v38) using Spliced Transcripts Alignment to a Reference (STAR) (77). At least 90% of the reads were successfully mapped. Reads aligning to the mm 10 build were quantified against Ensembl Transcripts release 93 using Partek® E/M (Partek's optimization of the expectation maximization algorithm, Partek Inc, St. Louis, MO, USA), which disregarded any reads that aligned to more than one location or more than one gene at a single location. […]

[2] = lacripep- versus PBS-treated corneas, Padj<0.05, 2-fold change cutoff

Ac-KQFIENGSEFAQKLLKKFSLLKPWA-NH2 [lacripep, amino terminus acetylated, carboxyl terminus aminated]
proportion of GAP43+ TUBB3+ nerves in central cornea ([1]; day 7, WT 37%): 26%
proportion of GAP43+ nerves in central cornea ([1]; day 7, WT 43%): 50%
nerve density of central cornea relative to WT tissue ([1]; day 7, whole mount): 45 % of the nerve density of WT tissue
nerve density level ([1]; day 15): returning to that of WT cornea
innervation of epithelial cell layers (TUBB3+ axons) ([1]; day 15, central corneal cross-sections): resembled that of WT tissue
density of GAP43+ nerve fibers expressing SP and CGRP ([1]; day 15, whole mount cornea): nearly equivalent to that of the WT controls
expression of inflammatory mediators (IL1b, interferon response genes) (Aire KO corneas; across diseased corneas): expressed at similar levels in all diseased corneas
expression of T cell markers, T cell response genes and macrophage markers (Aire KO corneas; compared to WT controls): remained significantly elevated
genes downregulated (Aire KO corneas; [2]): 15 genes
genes significantly upregulated (Aire KO corneas; [2]): 818 genes
